According to patent US9388180B2, “Inhibitor compounds of phosphodiesterase type 10A” (priority 2012, dated 2016):

Assays:
[1] = Microsomal half-life / microsomal clearance, human liver microsomes; type: in vitro ADME; details: 0.5 μM test substance, 0.25 mg protein/ml, pH 7.4, 37° C.
Method: (§1) The metabolic stability of the compounds of the invention was determined in the following assay. The test substances were incubated in a concentration of 0.5 μM as follows: 0.5 μM test substance are preincubated together with liver microsomes from different species (from rat, human or other species) (0.25 mg of microsomal protein/ml) in 0.05 M potassium phosphate buffer of pH 7.4 in microtiter plates at 37° C. for 5 min. The reaction is started by adding NADPH (1 mg/mL). After 0, 5, 10, 15, 20 and 30 min, 50 μl aliquots are removed, and the reaction is immediately stopped and cooled with the same volume of acetonitrile. The samples are frozen until analyzed. The remaining concentration of undegraded test substance is determined by MSMS. The half-life (T½) is determined from the gradient of the signal of test substance/unit time plot, it being possible to calculate the half-life of the test substance, assuming first order kinetics, from the decrease in the concentration of the compound with time. The microsomal clearance (mCl) is calculated from mCl=ln 2/T½/(content of microsomal protein in mg/ml)×1000 [ml/min/mg] (modified from references: Di, The Society for Bimolecular Screening, 2003, 453-462; Obach, D M D, 1999 vol 27. N 11, 1350-1359).

[2] = Microsomal half-life / microsomal clearance, rat liver microsomes; type: in vitro ADME; details: 0.5 μM test substance, 0.25 mg protein/ml, pH 7.4, 37° C.
Method: as §1

rats [3] = details: cited from earlier work
rats [4] = details: cited from earlier work; remark: listed apart in the source
rats [5] = details: cited from earlier work; remark: listed apart in the source

SMILES | Human mCl [1] | Rat mCl [2] | reduction of amphetamine-induced hyperactivity (rats [3]) | effect on the cataleptic effect of haloperidol (rats [4]; with D2 receptor antagonist haloperidol) | catalepsy on its own (rats [4]; without haloperidol) | hyperactivity induced by PCP (rats [5])
COc1ccc(Cc2nccc3cc(OC)c(OC)cc23)cc1OC [Papaverine, papaverine] |  |  | insignificant | potentiated the cataleptic effect | did not cause catalepsy | reduced hyperactivity
CCCc1nc(C)c2c(C)nc3sc(C)nc3n12 [Example 3, 2,5,6-Trimethyl-8-propyl-3-thia-1,4,7,8a-tetraaza-as-indacene] | + (+: 100-220 μl min^−1 mg^−1) | ∘ (∘: >220 μl min^−1 mg^−1) |  |  |  | 
CCCc1nc(C)c2c(C)nc3scnc3n12 [Example 1, 5,6-Dimethyl-8-propyl-3-thia-1,4,7,8a-tetraaza-as-indacene] | ++ (++: <100 μl min^−1 mg^−1) | + (+: 100-220 μl min^−1 mg^−1) |  |  |  | 

More lines, main results first:

Human mCl [1] | Rat mCl [2] | SMILES | reduction of amphetamine-induced hyperactivity (rats [3]) | effect on the cataleptic effect of haloperidol (rats [4]; with D2 receptor antagonist haloperidol) | catalepsy on its own (rats [4]; without haloperidol) | hyperactivity induced by PCP (rats [5])
+ (+: 100-220 μl min^−1 mg^−1) | + (+: 100-220 μl min^−1 mg^−1) | Cc1ccc(-c2nc(C)c3c(C)nc4scnc4n23)cn1 [Example 11, 5,6-Dimethyl-8-(6-methyl-pyridin-3-yl)-3-thia-1,4,7,8a-tetraaza-as-indacene] |  |  |  | 
++ (++: <100 μl min^−1 mg^−1) | ++ (++: <100 μl min^−1 mg^−1) | Cc1nc(-c2cccc(C(N)=O)c2)n2c1c(C)nc1scnc12 [Example 8, 3-(5,6-Dimethyl-3-thia-1,4,7,8a-tetraaza-as-indacen-8-yl)-benzamide] |  |  |  | 
++ (++: <100 μl min^−1 mg^−1) | ++ (++: <100 μl min^−1 mg^−1) | Cc1ncccc1-c1nc(C)c2c(C)nc3scnc3n12 [Example 9, 5,6-Dimethyl-8-(2-methyl-pyridin-3-yl)-3-thia-1,4,7,8a-tetraaza-as-indacene] |  |  |  | 
∘ (∘: >220 μl min^−1 mg^−1) | ∘ (∘: >220 μl min^−1 mg^−1) | CCCc1nc(C)c2c(C)nc3sc(OC)nc3n12 [Example 5, 2-Methoxy-5,6-dimethyl-8-propyl-3-thia-1,4,7,8a-tetraaza-as-indacene] |  |  |  | 
